Results reported in patent US20070225255A1, “Use of Mitochondrially Targeted Antioxidant in the Treatment of Liver Diseases and Epithelial Cancers” (priority 2004, published 2007).

How the values were obtained:
[1] = test system: patients having liver cirrhosis and a history of hepatitis C virus (HCV) infection; details: patients with liver cirrhosis and HCV history (VitE group); cited from earlier work
[2] = intraperitoneal or i.v. (tail vein) injections, mice; cited from earlier work
[3] = according to Jauslin M. L. et al., 2003, FASEB J.; cited from earlier work
[4] = fed in drinking water for 3 to 7 days, 500 μM or 1 mM (MitoVit E 500 μM); cited from earlier work
[5] = test system: DDC- or GF intoxicated mice; assay: Toxic memory effect upon reintoxication with DDC or GF after recovery; assay type: in vivo, mouse; details: 10 weeks DDC or GF, 4 weeks recovery, reexposure 24 to 72 hours with simultaneous treatment
Description: Mouse livers respond to DDC- or GF intoxication first with ballooning of hepatocytes and formation of a denser keratin IF network. After around 6 weeks of intoxication, ballooned hepatocytes show a reduced density of the keratin IF and early MBs can be observed as fine granules associated with the keratin IF network. Continuation of intoxication leads to the appearance of large MBs typically located in the perinuclear cytoplasmic region. […] Upon cessation of intoxication, MBs disappear within several weeks. At 4 weeks of recovery from intoxication, there are groups of hepatocytes devoid of cytoplasmic keratin filaments but still containing small remnants of MBs at the cell periphery in association with desmosomes. If such mice are reexposed to DDC or GF numerous MBs reappear within 24 to 72 hours (Stumptner C. et al., 2001, J. Hepatol., 34: 665-675). This enhanced formation of MBs upon reintoxication was interpreted—in analogy to allergic reactions—as a toxic memory effect.
In another set of experiments, 10 week-intoxication of mice with DDC or GF is followed by 4 weeks of recovery.

[6] = test system: mitochondria within isolated cells; details: in vitro; cited from earlier work
[7] = test system: human cell lines intoxicated with DDC or BSO; assay: ROS formation in cell lines intoxicated with DDC or BSO; assay type: cell-based; details: simultaneous treatment at concentrations corresponding to EC50
Description: Another simple set of experiments employing hepatoma cell lines (e.g. HepG2 or Hep3B), the SNU-398 hepatocellular carcinoma-derived cell line (ATCC No. CRL-2233, LGC Promochem, Germany), the HUH-7 human carcinoma-derived cell line (Japanese collection of Research Biosources JCRB 0403) or the Tib-73 mouse embryonic liver cell line (ATCC TIB 73=BNL CL2 derived from BAL/c mouse, MD, USA) allows measurement of ROS production in these cells upon DDC intoxication.
To determine ROS production in for example hepatoma cell lines a standard experimental protocol according to Example 8 is applied. Tested hepatoma cells are grown in 96-well plates in culture medium (DMEM supplemented with 10% FCS, Gibco) to 80% confluency, subsequently washed with HBSS and incubated in the dark with DHE (10-50 μM) for 10 minutes at 37° C. Cells are then washed twice with Hank's balanced salt solution (HBSS, Gibco) to remove excess dye. Fluorescence is monitored in a fluorescence microscope (Olympus, Hamburg, Germany).
Alternatively, the generation of ROS is measured by using the fluoroprobe 5-(and-6)-chloromethyl-2′,7′-dichlorodihydrofluorescein diacetate acetyl ester (CM-H2DCFDA, Molecular Probes, Goettingen, Germany) which is converted to fluorescent dichlorofluorescien (DCF; Djordjevic T. et al., 2004, Antioxidants & Redox Signaling, 6: 713-720). To determine DCF fluorescence in a microplate reader (Tecan, Crailsheim, Germany), cells (e.g. HepG2, Hep3B or SNU-398) are grown in 96-well plates to 80% confluency. […] After several washes with HBSS to remove excess dye, fluorescence is monitored by using 480 nm excitation and 540 nm emission wavelength. DCF fluorescence is standardized to the number of viable cells using the Alamar Blue test according to the manufacturer's instructions (Biosource, Nivelles, Belgium). […] The absorbance is then measured at the wavelength of 580 μm.

[8] = fed to mice on a long term basis; cited from earlier work
[9] = test system: choline deficient diet fed rats; details: cited from earlier work
[10] = test system: hepatoma cell lines; assay: DDC intoxication of hepatoma cell lines; assay type: cell-based; details: hepatoma cell lines incubated for up to 72 hours in DMEM and 10% FCS
Method: The hepatoma cell lines incubated for up to 72 hours in culture medium (DMEM and 10% FCS, Gibco) supplemented with DDC (EC50=50 μg/ml of medium) or with up to 100 μM BSO are another suitable in vitro model mimicking observations made in patients suffering from the diseases according to the invention.

[11] = test system: human epithelial cell cancer xenografts; assay: Nude mice tumor xenografts; assay type: in vivo, mouse
Method: Tumor cell lines or primary tumors that are xenografted subcutaneously according to standard methods (Li K. et al., 2003, Cancer Res., 63(13): 3593-3597) include colon adenocarcinomas, invasive ductal carcinomas of the breast, small and non-small cell lung carcinoma, prostate tumors, pancreatic tumors and stomach tumors.
Tumor-derived cell lines (grown in DMEM/10% FBS) are harvested in log-phase growth, washed twice with PBS, resuspended in 1 ml PBS (2.5×10^7 cells/ml), and injected subcutaneously into the right flank of a nude mouse (Hsd: athymic nu/nu, Harlan Winkelmann; aged between 5 and 6 weeks) at 5×10^6 cells/mouse (0.2 ml). Tumor growth is monitored every other day for the indicated periods (depending on the cell type). Tumor size is determined by the product of two perpendicular diameters and the height above the skin surface.

Cc1c(C)c2c(c(C)c1O)CC[C@@](C)(CCC[C@H](C)CCC[C@H](C)CCCC(C)C)O2 [alpha-tocopherol]
liver function, hepatocarcinogenesis, cumulative survival [1]: neither improvement of liver function, suppression of hepatocarcinogenesis, nor improvement of cumulative survival

Cc1c(C)c2c(c(C)c1O)CCC(C)(CC[P+](c1ccccc1)(c1ccccc1)c1ccccc1)O2 (stereo not drawn) [MitoVit E, [2-(3,4-dihydro-6-hydroxy-2,5,7,8-tetramethyl-2H-1-benzopyran-2-yl)ethyl]-triphenylphosphonium bromide]
maximum tolerated dose [2]: 6 mg/kg/day | EC50 [3]: 416 nM | gross signs of toxicity [4]: without any gross signs of toxicity | toxic memory effect (reappearance of MBs) [5]: reduced or abolished | accumulation by mitochondria [6]: rapidly and selectively accumulated by mitochondria | ROS formation [7]: significant reduction in ROS formation | concentrations within the brain, heart, liver, and muscle [8]: potentially therapeutically effective concentrations | safety of feeding [8]: fed safely

C[P+](c1ccccc1)(c1ccccc1)c1ccccc1 [TPMP, reference compound]
safety of feeding [8]: fed safely

vitamin E
development of fatty liver and oxidative stress [9]: neither prevented the development of fatty liver nor reduced the oxidative stress

CCOC(=O)C1=C(C)NC(C)=C(C(=O)OCC)C1C [DDC]
EC50 [10]: 50 μg/ml of medium

COc1c(O)c(C)c(CCCCCCCCCC[P+](c2ccccc2)(c2ccccc2)c2ccccc2)c(O)c1OC.CS(=O)(=O)[O-] [MitoS]
gross signs of toxicity [4]: without any gross signs of toxicity | toxic memory effect (reappearance of MBs) [5]: reduced or abolished | ROS formation [7]: significant reduction in ROS formation | growth of tumors [11]: reduced growth of tumors | necrosis of the tumors [11]: increased necrosis of the tumors | vascularization of the tumor xenografts [11]: decreased vascularization
